Reference: PubChem BioAssay (NCI)
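GI50 marks 50% less growth. TGI is the concentration that stops growth completely.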

Key:
Experiment in all cases: growth of human tumour cells (NCI), 384-well format
[1] = system: HCC-2998 colon
[2] = system: HOP-62 NSCLC
[3] = system: MOLT-4 leukemia
[4] = system: SN12C renal
[5] = system: NCI-H226 lung
[6] = system: SF-539 CNS
[7] = system: HT29 colon
[8] = system: LOX IMVI melanoma
[9] = system: SK-MEL-28 melanoma
[10] = system: BT-549 breast
[11] = system: EKVX NSCLC
[12] = system: SK-OV-3 ovarian
[13] = system: UACC-257 melanoma
[14] = system: DU-145 prostate
[15] = system: ACHN renal
[16] = system: HL-60(TB) leukemia
[17] = system: U251 glioblastoma
[18] = system: NCI/ADR-RES ovarian
[19] = system: K-562 leukemia
[20] = system: NCI-H460 NSCLC
[21] = system: SF-295 CNS
[22] = system: MDA-MB-231 breast
[23] = system: NCI-H322M lung
[24] = system: RPMI-8226 leukemia
[25] = system: T-47D breast
[26] = system: SNB-75 CNS
[27] = system: IGROV1 ovarian
[28] = system: M14 melanoma
[29] = system: NCI-H23 lung
[30] = system: RXF 393 renal
[31] = system: COLO 205 colon
[32] = system: A549 NSCLC
[33] = system: OVCAR-4 ovarian
[34] = system: SK-MEL-5 melanoma
[35] = system: HCT-15 colon
[36] = system: SNB-19 CNS
[37] = system: PC-3 prostate
[38] = system: KM12 colon
[39] = system: UO-31 renal
[40] = system: A498 renal
[41] = system: CCRF-CEM leukemia
[42] = system: 786-0 renal
[43] = system: SR leukemia
[44] = system: CAKI-1 renal
[45] = system: MALME-3M melanoma
[46] = system: TK-10 renal
[47] = system: NCI-H522 lung

COc1cc(C)[nH]c(=O)c1CNC(=O)c1c(C)n([C@H](C)C2CCN(CC(F)(F)F)CC2)c2ccccc12
GI50 [1]: 65.3 µM
TGI [1]: > 100 µM
GI50 [2]: 46.7 µM
TGI [2]: > 100 µM
GI50 [3]: 16.5 µM
TGI [3]: 31.3 µM
GI50 [4]: > 80.5 µM
TGI [4]: > 100 µM
GI50 [5]: > 51.9 µM
TGI [5]: 96.9 µM
GI50 [6]: > 100 µM
TGI [6]: > 100 µM
GI50 [7]: 39.7 µM
TGI [7]: > 100 µM
GI50 [8]: 31.7 µM
TGI [8]: 94.1 µM
GI50 [9]: 98.2 µM
TGI [9]: > 100 µM
GI50 [10]: 27.4 µM
TGI [10]: > 72.6 µM
GI50 [11]: 67.7 µM
TGI [11]: > 100 µM
GI50 [12]: 56.6 µM
TGI [12]: > 100 µM
GI50 [13]: 50.3 µM
TGI [13]: > 100 µM
GI50 [14]: 51.1 µM
TGI [14]: > 100 µM
GI50 [15]: 45.4 µM
TGI [15]: > 100 µM
GI50 [16]: 33.4 µM
TGI [16]: > 61.6 µM
GI50 [17]: 98 µM
TGI [17]: > 100 µM
GI50 [18]: > 100 µM
TGI [18]: > 100 µM
GI50 [19]: 36.3 µM
TGI [19]: > 100 µM
GI50 [20]: 54.7 µM
TGI [20]: > 100 µM
GI50 [21]: 76.6 µM
TGI [21]: > 100 µM
GI50 [22]: 67.5 µM
TGI [22]: > 100 µM
GI50 [23]: > 83.6 µM
TGI [23]: > 100 µM
GI50 [24]: 2.4 µM
TGI [24]: 10.3 µM
GI50 [25]: 29.7 µM
TGI [25]: > 94.1 µM
GI50 [26]: 42 µM
TGI [26]: > 100 µM
GI50 [27]: 44.1 µM
TGI [27]: > 100 µM
GI50 [28]: > 72.8 µM
TGI [28]: > 100 µM
GI50 [29]: > 100 µM
TGI [29]: > 100 µM
GI50 [30]: 28.3 µM
TGI [30]: 79.7 µM
GI50 [31]: 97.3 µM
TGI [31]: > 100 µM
GI50 [32]: 46.8 µM
TGI [32]: > 100 µM
GI50 [33]: 45.5 µM
TGI [33]: > 100 µM
GI50 [34]: 33.5 µM
TGI [34]: > 65.5 µM
GI50 [35]: 67 µM
TGI [35]: > 100 µM
GI50 [36]: > 100 µM
TGI [36]: > 100 µM
GI50 [37]: 55.5 µM
TGI [37]: > 100 µM
GI50 [38]: 53.8 µM
TGI [38]: > 100 µM
GI50 [39]: 90.4 µM
TGI [39]: > 100 µM
GI50 [40]: 43.1 µM
TGI [40]: > 100 µM
GI50 [41]: 21.6 µM
TGI [41]: 43.9 µM
GI50 [42]: 50.6 µM
TGI [42]: > 100 µM
GI50 [43]: 21.5 µM
TGI [43]: 76.5 µM
GI50 [44]: 63.5 µM
TGI [44]: > 100 µM
GI50 [45]: > 66.1 µM
TGI [45]: > 100 µM
GI50 [46]: > 100 µM
TGI [46]: > 100 µM
GI50 [47]: 65.2 µM
TGI [47]: > 100 µM
